Literature values, collected in paper PMC5862788 (Antiviral therapy, 2018).
Where two headings read alike, the source gives them in different places.

System: HCV

## CC(C)C(=O)OC[C@H]1O[C@@H](n2ccc(N)nc2=O)[C@](C)(F)[C@@H]1OC(=O)C(C)C [mericitabine]
1500 mg bid
  predicted effectiveness ε: 0.997

## CC(C)(C)OC(=O)N[C@H]1CCCCC/C=C\[C@@H]2C[C@@]2(C(=O)NS(=O)(=O)C2CC2)NC(=O)[C@@H]2C[C@@H](OC(=O)N3Cc4cccc(F)c4C3)CN2C1=O [danoprevir]
100 mg bid
  predicted effectiveness ε: 0.976
monotherapy, 200 mg tid and 300 mg bid
  predicted effectiveness ε: 0.992

## COC(=O)N[C@H](C(=O)N1CCC[C@H]1c1nc(-c2ccc(-c3ccc(-c4c[nH]c([C@@H]5CCCN5C(=O)[C@@H](NC(=O)OC)C(C)C)n4)cc3)cc2)c[nH]1)C(C)C [daclatasvir]
200 mg tid
  predicted effectiveness ε: 0.996
